Laboratory results reported in US10058495B2, “Method of making a skin care product” (The Procter & Gamble Company, priority 2014, dated 2018).
Residues, ends and D or L forms follow the SMILES beside them. *: point of attachment. Palmitoyl = CCCCCCCCCCCCCCCC(=O)*

Assay: In vivo skin penetration study #2 (Tape Stripping method), magnetic vs non-magnetic applicator
Parameters: species or system human
Details: for amount of Pal-KTTKS recovered, Sum 2-10 / amount of Pal-KTTKS recovered, Sum 6-10: in ng (unit assumed)
Method: This method provides a suitable means of measuring the amount of skin care active present in skin, and comparing active versus passive application of the skin care active. Two identical rectangular areas of 15 cm^2 are marked on the volar forearms of volunteers. A measured dose (approximately 30 mg) of the Pal-KTTKS (SEQ ID NO: 1) formulation is applied to the delineated areas using a screw actuated syringe. Active application is carried out on one of the delineated areas using the three-quarter profile of a purpose made applicator (e.g., an applicator presenting one of the magnetic arrays set forth in Table 2). Passive application is accomplished on the other delineated area using the tip of a finger in a sweeping motion identical to that of the active application. The formulation is spread evenly across the entire delineated region using a sweeping motion with a fixed speed of approximately 23 cm/s to […]. The application period is 30 seconds during which time visual inspection is used to ensure even distribution and absorption of the formulation by skin. The application area is then left uncovered for a further 30 minutes to ensure complete absorption. Tape strip samples may be collected and/or analyzed immediately after the complete absorption is ensured or after a waiting period (e.g., after multiple applications of the formulation over multiple hours or days).
The tape stripping procedure is carried out using 10 commercial pre-cut 22.1 mm tape stripping adhesive discs (e.g., D-SQUAME, available from Cuderm Corporation or equivalent) with an adhesive area of 3.8 cm^2. The 10 tape strips are applied sequentially to the same sampling site, which ideally enables each tape strip to obtain a sample from deeper within the stratum corneum than the tape strip that preceded it. A 22.1 mm diameter circular region is marked at the center of the application area. A tape stripping adhesive disc is placed over the marked area and even pressure applied using, for example, a neoprene roller, rolled ten times over the adhesive disc. The adhesive disc is removed from the skin surface in a single pulling motion using manual tweezers. To ensure even removal of the skin sample, subsequent discs are removed in a “north, south, east and west” orientation, which is within the skill of the ordinary artisan. Each adhesive disc is non-destructively analysed for protein content using a suitable instrument (e.g., SquameScan™ 850 instrument commercially available from Heiland Electronics Wetzlar, Germany, or equivalent). The adhesive disc is then immediately placed into a glass vial containing extraction solvent in preparation for subsequent analysis. Solvent extractions are conducted on each tape strip using conventional extraction methods, which are well known to those of ordinary skill in the art, and measuring the amount of Pal-KTTKS (SEQ ID NO: 1) present in the extract, for example, by high performance liquid chromatography (“HPLC”) and/or mass spectrometry.
The procedure is repeated for the remaining nine strips. An additional strip is obtained from outside the area of application of the skin care formulation to serve as a blank sample. The amount of active is normalized to the amount of protein measured.
This in vivo skin penetration study compares the penetration of Pal-KTTKS (SEQ ID NO: 1) into skin when a Pal-KTTKS (SEQ ID NO: 1)-containing composition is applied with a magnetic applicator (active application) versus application with a non-magnetic applicator (passive application). In this example, 5 test subjects (A to E in Tables 13 and 14) were selected. 18 mg of a composition containing Pal-KTTKS (SEQ ID NO: 1) (Olay® Deep Wrinkle Treatment® brand skin cream available from the Procter & Gamble Company, Cincinnati, Ohio) was applied to two 3 cm×3 cm test sites on the inner forearms of each test subject using the applicator illustrated in FIG. 1C. The applicator used for active application included Array #8 from Table 2. […]

[1] = active, array #8, Avg of all test sites
[2] = active, array #8, subject A site 1
[3] = active, array #8, subject A site 2
[4] = active, array #8, subject B site 1
[5] = active, array #8, subject B site 2
[6] = active, array #8, subject C site 1
[7] = active, array #8, subject C site 2
[8] = active, array #8, subject D site 1
[9] = active, array #8, subject D site 2
[10] = active, array #8, subject E site 1
[11] = active, array #8, subject E site 2

## CCCCCCCCCCCCCCCC(=O)N[C@@H](CCCCN)C(=O)N[C@H](C(=O)N[C@H](C(=O)N[C@@H](CCCCN)C(=O)N[C@@H](CO)C(=O)O)[C@@H](C)O)[C@@H](C)O [Pal-KTTKS, palmitoyl-lysine-threonine-threonine-lysine-serine] (Palmitoyl-KTTKS-OH; C-terminus assumed)
[1]
  amount of Pal-KTTKS recovered, Sum 2-10: 42.02
  amount of Pal-KTTKS recovered, Sum 6-10: 22.74
[2]
  amount of Pal-KTTKS recovered, Sum 2-10: 83.43
  amount of Pal-KTTKS recovered, Sum 6-10: 53.81
[3]
  amount of Pal-KTTKS recovered, Sum 2-10: 40.40
  amount of Pal-KTTKS recovered, Sum 6-10: 17.29
[4]
  amount of Pal-KTTKS recovered, Sum 2-10: 42.67
  amount of Pal-KTTKS recovered, Sum 6-10: 21.36
[5]
  amount of Pal-KTTKS recovered, Sum 2-10: 36.84
  amount of Pal-KTTKS recovered, Sum 6-10: 16.95
[6]
  amount of Pal-KTTKS recovered, Sum 2-10: 31.64
  amount of Pal-KTTKS recovered, Sum 6-10: 19.40
[7]
  amount of Pal-KTTKS recovered, Sum 2-10: 90.87
  amount of Pal-KTTKS recovered, Sum 6-10: 54.66
[8]
  amount of Pal-KTTKS recovered, Sum 2-10: 18.10
  amount of Pal-KTTKS recovered, Sum 6-10: 9.26
[9]
  amount of Pal-KTTKS recovered, Sum 2-10: 18.31
  amount of Pal-KTTKS recovered, Sum 6-10: 8.02
[10]
  amount of Pal-KTTKS recovered, Sum 2-10: 31.17
  amount of Pal-KTTKS recovered, Sum 6-10: 14.86
[11]
  amount of Pal-KTTKS recovered, Sum 2-10: 26.78
  amount of Pal-KTTKS recovered, Sum 6-10: 11.84
Array #8, Avg of the enhancement values of all test sites
  Enhancement value Strips 2-10 (active/passive): 4.00
Array #8, subject A site 1
  Enhancement value Strips 2-10 (active/passive): 1.34
  Enhancement value Strips 6-10 (active/passive): 1.33
Array #8, subject A site 2
  Enhancement value Strips 2-10 (active/passive): 16.52
Array #8, subject B site 1
  Enhancement value Strips 2-10 (active/passive): 3.39
  Enhancement value Strips 6-10 (active/passive): 18.16
Array #8, subject B site 2
  Enhancement value Strips 2-10 (active/passive): 3.47
Array #8, subject C site 1
  Enhancement value Strips 2-10 (active/passive): 2.23
  Enhancement value Strips 6-10 (active/passive): 3.03
Array #8, subject C site 2
  Enhancement value Strips 2-10 (active/passive): 1.32
  Enhancement value Strips 6-10 (active/passive): 1.22
Array #8, subject D site 1
  Enhancement value Strips 2-10 (active/passive): 1.72
  Enhancement value Strips 6-10 (active/passive): 3.63
Array #8, subject D site 2
  Enhancement value Strips 2-10 (active/passive): 2.35
Array #8, subject E site 1
  Enhancement value Strips 2-10 (active/passive): 4.86
  Enhancement value Strips 6-10 (active/passive): 10.70
Array #8, subject E site 2
  Enhancement value Strips 2-10 (active/passive): 2.75
  Enhancement value Strips 6-10 (active/passive): 6.73
passive, Avg of all test sites
  amount of Pal-KTTKS recovered, Sum 2-10: 20.55
  amount of Pal-KTTKS recovered, Sum 6-10: 10.01
passive, subject A site 1
  amount of Pal-KTTKS recovered, Sum 2-10: 62.40
  amount of Pal-KTTKS recovered, Sum 6-10: 40.39
passive, subject A site 2
  amount of Pal-KTTKS recovered, Sum 2-10: 2.45
  amount of Pal-KTTKS recovered, Sum 6-10: 0.00
passive, subject B site 1
  amount of Pal-KTTKS recovered, Sum 2-10: 12.58
  amount of Pal-KTTKS recovered, Sum 6-10: 2.25
passive, subject B site 2
  amount of Pal-KTTKS recovered, Sum 2-10: 10.61
  amount of Pal-KTTKS recovered, Sum 6-10: 1.04
passive, subject C site 1
  amount of Pal-KTTKS recovered, Sum 2-10: 14.16
  amount of Pal-KTTKS recovered, Sum 6-10: 5.56
passive, subject C site 2
  amount of Pal-KTTKS recovered, Sum 2-10: 68.87
  amount of Pal-KTTKS recovered, Sum 6-10: 43.44
passive, subject D site 1
  amount of Pal-KTTKS recovered, Sum 2-10: 10.53
  amount of Pal-KTTKS recovered, Sum 6-10: 3.35
passive, subject D site 2
  amount of Pal-KTTKS recovered, Sum 2-10: 7.81
  amount of Pal-KTTKS recovered, Sum 6-10: 0.00
passive, subject E site 1
  amount of Pal-KTTKS recovered, Sum 2-10: 6.41
  amount of Pal-KTTKS recovered, Sum 6-10: 1.72
passive, subject E site 2
  amount of Pal-KTTKS recovered, Sum 2-10: 9.74
  amount of Pal-KTTKS recovered, Sum 6-10: 2.31
